Measurements published in patent US20250289786A1, “CHLORINATED MONOCARBONYL CURCUMIN COMPOUNDS, PREPARATION METHOD, AND APPLICATION” (Southwest Medical University, priority 2024, published 2025).

What was measured:
PC12 cells [1] = experiment: MTT toxicity (safety evaluation) on PC12 nerve cells; type: cell-based; details: for cytotoxicity to PC12 cells: 3.75-60 μM, 24 h and 48 h, in words
Description: The toxicity of each drug to PC12 cells was determined by MTT assay. The principle of the MTT colorimetric method: there is succinate dehydrogenase in the mitochondria of living cells, which can make exogenous MTT become blue-purple crystal formazan insoluble in water, this phenomenon cannot be observed in dead cells. The blue-purple crystal formazan can be dissolved by DMSO, and the absorbance value is measured by a microplate reader at a wavelength of 490 nm, which in turn reflects the number of living cells. […] The operation method is as follows:
The cells were resuscitated with DMEM high glucose medium containing 10% fetal bovine serum and cultured in a 5% CO2 cell incubator at 37° C., when the cells grew to the logarithmic growth phase, they were inoculated into a 96-well plate and cultured for 24 hours, each well was added with 100 μL of each compound solution at the corresponding gradient concentration (60, 30, 15, 7.5, 3.75 μM), after incubation in the incubator for 24 h or 48 h, 20 μL of MTT was added to continue incubation for 4 h, the supernatant was discarded and 150 μL of DMSO was added to dissolve the blue-purple crystals, after shaking for 10 min, the cell viability was detected by a microplate reader, and classified according to the cytotoxicity standard. The relevant calculation formula is as follows: […]

PC12 cells [2] = experiment: Inhibition of corticosterone (CORT)-induced PC12 cell damage; type: cell-based, rat; details: 3.75-60 μM drug with 514.6 μM CORT, 24 h, in words
[3] = ABTS free radical capture ability; type: biochemical; details: 20 min reaction in the dark
Description: 66.2 mg of K2S2O8 was weighed and placed in a 100 mL volumetric flask, pure water was added to the scale line to prepare a 2.45 mmol/L K2S2O8 solution. 192 mg of ABTS was accurately weighed and placed in a 25 mL volumetric flask, and the newly prepared K2S2O8 solution was added for dissolving and constant volume dilution, after standing in the dark for 20 h, the ABTS mother liquor was obtained. Before use, to make the measured value more accurate, the ABTS mother liquor needs to be diluted with a PBS solution of pH7.4 until the absorbance range of the ABTS working solution at 734 nm is 0.70±0.02.
Drug concentration screening: To avoid the complete removal of free radicals by excessive drug concentration and the inability to compare the ability to capture ABTS free radicals, a preliminary screening of drug concentration is required before the formal test. A gradient concentration of compound solution was prepared, and a gradient concentration of Vit C solution was prepared as a positive control. A total of 450 μL of ABTS working solution was accurately absorbed into a 1.5 mL EP tube, and 150 μL of the gradient solution of each group of drugs was added, after 20 min of reaction in the dark, 150 μL of the reaction solution was taken and placed in a 96-well plate, the absorbance was measured by a microplate reader. Three duplicate wells were set for each concentration, and the drug concentration with absorbance between 0.2-0.7 was selected for subsequent determination.
Determination operation: After the drug concentration screening was completed, 7 concentration gradient groups were set within this concentration range. A total of 450 μL of ABTS working solution was accurately absorbed into a 1.5 mL EP tube, and 150 μL of the gradient solution of each group of drugs was added. After 20 min of reaction in the dark, 150 μL of the reaction solution was taken and placed in a 96-well plate, the absorbance was measured by a microplate reader. Three duplicate wells were set for each concentration, the positive control group was a gradient solution of Vit C, and the blank control group was an equal volume of anhydrous ethanol.

PC12 cells [4] = experiment: Inhibition of H2O2-induced oxidative damage in PC12 cells; type: cell-based, rat; details: for effect on survival of H2O2-damaged PC12 cells: 24 h, in words
Description: After 24 hours of incubation in the incubator, the relative proliferation rates of the cells were calculated according to the method under Section 2.1.

[5] = Solubility detection of CAK01-CAK07; type: physicochemical
Source text: The chlorinated monocarbonyl curcumin compounds CAK01-CAK07 prepared under the conditions of Example 1 were taken for nuclear magnetic resonance, mass spectrometry, solubility, and melting point detection.

SMILES | cytotoxicity to PC12 cells (PC12 cells [1]) | Rank (cytotoxicity standard) 24 h (PC12 cells [1]; PC12, 3.75 μM) | Relative growth rate (%) 24 h (PC12 cells [1]; PC12, 3.75 μM) [%] | Rank (cytotoxicity standard) 48 h (PC12 cells [1]; PC12, 3.75 μM) | Relative growth rate (%) 48 h (PC12 cells [1]; PC12, 3.75 μM) [%] | Rank (cytotoxicity standard) 24 h (PC12 cells [1]; PC12, 7.5 μM) | Relative growth rate (%) 24 h (PC12 cells [1]; PC12, 7.5 μM) [%] | Rank (cytotoxicity standard) 48 h (PC12 cells [1]; PC12, 7.5 μM) | Relative growth rate (%) 48 h (PC12 cells [1]; PC12, 7.5 μM) [%] | Rank (cytotoxicity standard) 24 h (PC12 cells [1]; PC12, 15 μM) | Relative growth rate (%) 24 h (PC12 cells [1]; PC12, 15 μM) [%] | Rank (cytotoxicity standard) 48 h (PC12 cells [1]; PC12, 15 μM) | Relative growth rate (%) 48 h (PC12 cells [1]; PC12, 15 μM) [%] | Rank (cytotoxicity standard) 24 h (PC12 cells [1]; PC12, 30 μM) | Relative growth rate (%) 24 h (PC12 cells [1]; PC12, 30 μM) [%] | Rank (cytotoxicity standard) 48 h (PC12 cells [1]; PC12, 30 μM) | Relative growth rate (%) 48 h (PC12 cells [1]; PC12, 30 μM) [%] | Rank (cytotoxicity standard) 24 h (PC12 cells [1]; PC12, 60 μM) | Relative growth rate (%) 24 h (PC12 cells [1]; PC12, 60 μM) [%] | IC50 values of ABTS captured [3] [µg/mL] | also measured
COc1cc(/C=C2\CN(C(C)C)C/C(=C\c3cc(Cl)c(O)c(OC)c3)C2=O)cc(Cl)c1O [CAK05, 3,5-bis ((E)-3-chloro-4-hydroxy-5-methoxybenzylidene)-1-isopropylpiperidin-4-one] | a great influence on the activity of PC12 cells | 1 | 89.59 ± 2.85 | 2 | 61.38±0.91 | 2 | 68.98±2.27 | 2 | 51.45 ± 1.44 | 2 | 62.32 ± 3.54 | 3 | 22.26 ± 1.14 | 2 | 56.50 ± 1.99 | 4 | 15.43 ± 0.32 | 3 | 41.84 ± 0.40 | 369.1 | Rank (cytotoxicity standard) 48 h (PC12 cells [1]; PC12, 60 μM): 4; Relative growth rate (%) 48 h (PC12 cells [1]; PC12, 60 μM): 11.06 ± 0.87%; effect on viability of CORT-damaged PC12 cells (PC12 cells [2]): did not show the potential to restore cell viability; effect on survival of H2O2-damaged PC12 cells (PC12 cells [4]; 3.75-60 μM drug): failed to show the potential to restore cell viability; solubility [5]: 0.14 mg/100 g
CN1C/C(=C\c2cc(Cl)c(O)c(Cl)c2)C(=O)/C(=C/c2cc(Cl)c(O)c(Cl)c2)C1 [CAK02, 3,5-bis ((E)-3,5-dichloro-4-hydroxybenzylidene)-1-methylpiperidin-4-one] | no significant cytotoxicity | 0 | 102.93 ± 1.13 | 1 | 98.35 ± 1.84 | 1 | 99.40 ± 4.11 | 0 | 100.22 ± 3.73 | 1 | 95.08 ± 10.06 | 1 | 95.22 ± 1.86 | 1 | 99.48 ± 1.91 | 1 | 97.59 ± 8.36 | 1 | 88.18 ± 0.93 | 223.7 | Rank (cytotoxicity standard) 48 h (PC12 cells [1]; PC12, 60 μM): 1; Relative growth rate (%) 48 h (PC12 cells [1]; PC12, 60 μM): 98.48 ± 2.00%; effect on viability of CORT-damaged PC12 cells (PC12 cells [2]): did not show the potential to restore cell viability; effect on survival of H2O2-damaged PC12 cells (PC12 cells [4]; drug concentration below 30 μM): increased the survival rate of cells in a concentration-dependent manner; solubility [5]: 0.09 mg/100 g
CC(C)N1C/C(=C\c2cc(Cl)c(O)c(Cl)c2)C(=O)/C(=C/c2cc(Cl)c(O)c(Cl)c2)C1 [CAK04, 3,5-bis ((E)-3,5-dichloro-4-hydroxybenzylidene)-1-isopropylpiperidin-4-one] | no significant cytotoxicity | 1 | 98.54 ± 5.42 | 0 | 100.97 ± 3.25 | 1 | 99.95 ± 5.76 | 0 | 100.45 ± 2.96 | 1 | 99.06 ± 5.73 | 1 | 99.75 ± 1.57 | 1 | 99.66 ± 2.34 | 1 | 98.02 ± 3.00 | 0 | 101.64 ± 3.95 | 57.78 | Rank (cytotoxicity standard) 48 h (PC12 cells [1]; PC12, 60 μM): 0; Relative growth rate (%) 48 h (PC12 cells [1]; PC12, 60 μM): 100.17 ± 2.92%; effect on viability of CORT-damaged PC12 cells (PC12 cells [2]): did not show the potential to restore cell viability; relative proliferation rate of cells (PC12 cells [4]; 30 μM drug with 585.8 μM H2O2, 24 h): 52.12±0.88%; effect on survival of H2O2-damaged PC12 cells (PC12 cells [4]; drug concentration below 30 μM): increased the survival rate of cells in a concentration-dependent manner; solubility [5]: 0.04 mg/100 g
O=C1O[C@H]([C@@H](O)CO)C(O)=C1O [Vit C, ascorbic acid, reference compound] |  |  |  |  |  |  |  |  |  |  |  |  |  |  |  |  |  |  |  | 54.54 | 
COc1cc(/C=C2\CN(C)C/C(=C\c3cc(Cl)c(O)c(OC)c3)C2=O)cc(Cl)c1O [CAK07, 3,5-bis ((E)-3-chloro-4-hydroxy-5-methoxybenzylidene)-1-methylpiperidin-4-one] | high | 1 | 99.04 ± 1.89 | 1 | 82.45 ± 2.34 | 1 | 76.49 ± 0.75 | 3 | 46.41±0.69 | 2 | 60.78±0.55 | 3 | 30.99 ± 0.02 | 2 | 53.24 ± 0.51 | 3 | 30.46 ± 0.54 | 3 | 49.53 ± 0.31 | 197.3 | Rank (cytotoxicity standard) 48 h (PC12 cells [1]; PC12, 60 μM): 4; Relative growth rate (%) 48 h (PC12 cells [1]; PC12, 60 μM): 24.20 ± 0.74%; effect on viability of CORT-damaged PC12 cells (PC12 cells [2]): did not show the potential to restore cell viability; effect on survival of H2O2-damaged PC12 cells (PC12 cells [4]; 7.5 μM drug): a certain cytoprotective effect; solubility [5]: 34.77 mg/100 g
O=C1/C(=C/c2cc(Cl)c(O)c(Cl)c2)CNC/C1=C\c1cc(Cl)c(O)c(Cl)c1 [CAK01, 3,5-bis ((E)-3,5-dichloro-4-hydroxybenzylidene) piperidin-4-one] | no significant cytotoxicity | 0 | 104.22 ± 1.99 | 1 | 99.22 ± 1.65 | 0 | 101.17 ± 2.97 | 0 | 100.73 ± 3.19 | 1 | 99.46 ± 2.16 | 1 | 99.33 ± 1.79 | 0 | 101.62 ± 3.23 | 0 | 100.73 ± 2.88 | 0 | 104.04 ± 1.43 | 79.62 | Rank (cytotoxicity standard) 48 h (PC12 cells [1]; PC12, 60 μM): 1; Relative growth rate (%) 48 h (PC12 cells [1]; PC12, 60 μM): 85.41 ± 3.45%; effect on viability of CORT-damaged PC12 cells (PC12 cells [2]): did not show the potential to restore cell viability; effect on survival of H2O2-damaged PC12 cells (PC12 cells [4]; drug concentration below 30 μM): increased the survival rate of cells in a concentration-dependent manner; solubility [5]: 0.17 mg/100 g
